Laboratory results: patent US20240108641A1, “COMPOSITIONS FOR ORAL ADMINISTRATION OF ZOLEDRONIC ACID OR RELATED COMPOUNDS FOR TREATING DISEASE” (ANTECIP BIOVENTURES II LLC, priority 2012, published 2024)

How the values were obtained:
[1] = phase 1 clinical trial, bioavailability and pharmacokinetics of the oral dosage form versus IV Zometa; format: in vivo, human
Procedure: Dose amounts are based upon the weights of the molar equivalent amounts of the diacid form of zoledronic acid (e.g., the 50 mg oral dose contains about 71 mg of the disodium zoledronate tetrahydrate form). The dosage form had the composition shown in Table 3, and was coated with Opadry White, which as 3-5 wt % of the coated tablet. These dosage forms were free of bioavailability enhancing agents. For convenience, the dosage form described in Table 3 will be described in this Example as “the oral dosage form.”
Each subject received 2 of the following 4 treatments: one unit of the oral dosage form for a 50 mg dose (“the 50 mg oral dose”), two units of the oral dosage form taken together for a 100 mg dose (“the 100 mg oral dose”), or three units of the oral dosage form taken together for a 150 mg dose (“the 150 mg oral dose”), or a 1 mg IV dose of zoledronic acid (Zometa®). Each treatment was separated by a wash-out period of approximately 14 days. Blood samples were collected for 72 hours post-dose to characterize zoledronic acid pharmacokinetics. Blood samples were collected pre-dose and 7 and 14-15 days post-dose to measure the effects of the oral disodium tetrahydrate form of zoledronic acid and IV zoledronic acid on biomarkers of bone resorption.
All study medications which were orally administered were given with approximately 240 mL of water. Subjects remained upright for the first hour following study medication administration. Zoledronic acid IV infusion was at least 15 minutes in duration. All study medication was administered under fasting conditions.
Each treatment was separated by a washout period of approximately 14 days. Blood samples were collected for 72 hours post-dose to characterize zoledronic acid pharmacokinetics. Blood samples were collected pre-dose and 7 and 14-15 days post-dose to measure the effects of the oral dosage form and IV zoledronic acid on serum CTx.

[2] = test system: knee pain (knee osteoarthritis and knee bone marrow lesions); experiment: clinical study in knee osteoarthritis with bone marrow lesions, VAS pain; format: in vivo, human; settings: 5 mg intravenous; for average VAS scores decreased from baseline: 3 months; for average VAS scores reduced as compared to placebo: three months
Source text: Some embodiments related to joint pain, bone marrow lesions, and osteoarthritis were conceived as a result of analyzing data from a clinical study. Some of the results of this study were reported by Laslett et al. in Ann Rheum Dis 2012; 71:1322-1328. Some of the description and data reported below was not published prior to filing the present application. Fifty-two (52) patients with clinical knee osteoarthritis and knee bone marrow lesions (BML) were randomized to receive either intravenous zoledronic acid (5 mg) or placebo in a double blind fashion. All patients had to have at least one bone marrow lesion (BML) in the affected knee on magnetic resonance imaging (MRI). All patients had x-ray of the knee for determination of joint space narrowing (JSN), which was graded according to the Osteoarthritis Research Society International (OARSI) atlas. Patients had either no joint space narrowing (OARSI Grade 0), or greater degrees of joint space narrowing (OARSI Grade 1 and Grade 2). Twenty six patients were treated with zoledronic acid (8, 6, and 12 with OARSI Grades 0, 1, and 2, respectively). Twenty six patients received placebo (8, 8, and 10 with OARSI Grades 0, 1 and 2, respectively).
Pain intensity was assessed at baseline and at three months, using a 100 mm visual analog scale (VAS), with zero representing no pain and 100 representing extreme pain. The change in pain intensity from baseline to 3 months was calculated.

[3] = test system: inflammatory pain (mechanical hyperalgesia); format: in vivo, Sprague-Dawley rats
Procedure: The effect of orally administered zoledronic acid on inflammatory pain was examined using the rat complete Freund's adjuvant (CFA) model. Inflammatory pain was induced by injection of 100% CFA in a 75 μL volume into the left hind paws of Sprague-Dawley® rats on day 0, followed by assessments on days 1-3. Animals were orally administered vehicle (control), zoledronic acid 18 mg/m^2 (or 3 mg/kg), zoledronic acid 120 mg/m^2 (or 20 mg/kg), or zoledronic acid 900 mg/m^2 (or 150 mg/kg) daily on days 1-3. Drug was dissolved in distilled water and prepared fresh daily. Animals were fasted prior to dosing. Under current FDA guidelines for extrapolating starting dosages from animals to humans, dosages expressed in mg/m^2 are considered equivalent between mammalian species. Thus, for example, 18 mg/m^2 in a rat is considered equivalent to 18 mg/m^2 in a human being, while 3 mg/kg in a rat may not be equivalent to 3 mg/kg in a human being.
Values for inflammatory pain (mechanical hyperalgesia) in the vehicle and drug-treated animals were obtained on day 0 prior to CFA injection, and at baseline and post-treatment on days 1-3. Pain was assessed using a digital Randall-Selitto device (dRS; IITC Life Sciences, Woodland Hills, CA). Animals were placed in a restraint sling that suspended the animal, leaving the hind limbs available for testing. Paw compression threshold was measured by applying increasing pressure to the plantar surface of the hind paw with a dome-shaped tip placed between the 3rd and 4th metatarsus. Pressure was applied gradually over approximately 10 seconds. Measurements were taken from the first observed nocifensive behavior of vocalization, struggle or withdrawal. A cut-off value of 300 g was used to prevent injury to the animal.
Reversal of inflammatory pain was calculated according to the formula:
% reversal=(Post-treatment−Post-CFA baseline)/(Pre-CFA baseline−Post-CFA baseline)×100.
The experiment was carried out using 9-10 animals per group.

O=P(O)(O)C(O)(Cn1ccnc1)P(=O)(O)O [zoledronic acid]
Sustained Plasma Factor ([1]; 1 mg IV): 4.6
Sustained Plasma Factor ([1]; 50 mg oral dose): 13.5
Sustained Plasma Factor Ratio (oral/IV) ([1]; 50 mg oral dose versus 1 mg IV): 2.9
Sustained Plasma Factor ([1]; 100 mg oral dose): 11.7
Sustained Plasma Factor Ratio (oral/IV) ([1]; 100 mg oral dose versus 1 mg IV): 2.5
Sustained Plasma Factor ([1]; 150 mg oral dose): 15.1
Sustained Plasma Factor Ratio (oral/IV) ([1]; 150 mg oral dose versus 1 mg IV): 3.3
average VAS scores decreased from baseline ([2]; OARSI Grade 0): approximately 25 mm
average VAS scores decreased from baseline ([2]; OARSI Grade 1): ~21 mm
average VAS scores decreased from baseline ([2]; OARSI Grade 2): 9 mm
Pain Reduction Compared to Placebo at Three Months, VAS Change ([2]; All patients): −4.8 mm
Change in VAS Pain Scores at Three Months ([2]; Baseline VAS < 50 mm): −7.3 mm
Change in VAS Pain Scores at Three Months, Difference from Placebo ([2]; Baseline VAS < 50 mm): −0.6 mm
Change in VAS Pain Scores at Three Months ([2]; Baseline VAS ≥ 50 mm): −26.2 mm
Change in VAS Pain Scores at Three Months, Difference from Placebo ([2]; Baseline VAS ≥ 50 mm): −9.0 mm
Pain Reduction Compared to Placebo at Three Months, VAS Change ([2]; Baseline VAS ≥ 50 mm + OARSI Grade 0): −19.4 mm
Change in VAS Pain Scores at Three Months ([2]; OARSI Grade 0): −24.6 mm
Change in VAS Pain Scores at Three Months, Difference from Placebo ([2]; OARSI Grade 0): −15.0 mm
Change in VAS Pain Scores at Three Months ([2]; OARSI Grades 1-2): −13.2 mm
Change in VAS Pain Scores at Three Months, Difference from Placebo ([2]; OARSI Grades 1-2): −0.28 mm
average VAS scores reduced as compared to placebo ([2]; OARSI Grade 0): 15 mm
average VAS scores reduced as compared to placebo ([2]; OARSI Grades 1-2): 0.28
average VAS scores reduced as compared to placebo ([2]; baseline VAS 50 mm): 9 mm
average VAS scores reduced as compared to placebo ([2]; baseline VAS<50 mm): 0.6
paw compression thresholds compared to vehicle ([3]; 120 mg/m^2 (20 mg/kg) oral daily, all time points): approximately equal or inferior to vehicle
toxicity ([3]; 900 mg/m^2 oral daily days 1-3, euthanization of all animals two days after cessation of dosing): significant toxicity
inflammatory pain thresholds compared to vehicle ([3]; oral administration): significantly improved
